# Measured values reported in patent US20210386069A1 (priority 2018, published 2021).
# Assay: log P by HPLC on a reversed-phase column (C 18), EEC Directive 79/831 Annex V.A8
# Assay type: physicochemical
# Conditions: HPLC reversed-phase C 18, 40° C., 0.1% aqueous formic acid and acetonitrile, linear gradient 10% to 95% acetonitrile
# Method: In table 1, the log P values were determined in accordance with EEC Directive 79/831 Annex V.A8 by HPLC (High Performance Liquid Chromatography) on a reversed-phase column (C 18), using the method described below:
# temperature: 40° C.; mobile phases: 0.1% aqueous formic acid and acetonitrile; linear gradient from 10% acetonitrile to 95% acetonitrile;
# If more than one Log P value is available within the same method, all the values are given and separated by “;”.
# Calibration was carried out using unbranched alkan-2-ones (comprising 3 to 16 carbon atoms) with known log P values (determination of the log P values by the retention times using linear interpolation between two successive alkanones). lambda-max-values were determined using UV-spectra from 200 nm to 400 nm and the peak values of the chromatographic signals.
row,SMILES,logP
1,Cc1cncc(C)c1-c1c(F)cccc1Nc1cc2ccc(F)c(F)c2nc1C [I.070],2.28
2,CSc1ccc(-c2ccccc2Nc2cc3ccc(F)c(F)c3nc2C)cn1 [I.071],3.81
3,CSc1ncccc1-c1ccccc1Nc1cc2ccc(F)c(F)c2nc1C [I.072],4.08
4,COc1ccc(-c2c(F)cccc2Cc2cc3ccc(F)c(F)c3nc2C)cn1 [I.073],3.99
5,COc1cccc(-c2c(F)cccc2Cc2cc3ccc(F)c(F)c3nc2C)n1 [I.074],3.79
6,COc1ncccc1-c1c(F)cccc1Cc1cc2ccc(F)c(F)c2nc1C [I.075],3.79
7,COc1ncccc1-c1c(F)cccc1Nc1cc2ccc(F)c(F)c2nc1C [I.076],3.70
8,COc1ccc(-c2c(F)cccc2Nc2cc3ccc(F)c(F)c3nc2C)cn1 [I.077],3.71
9,COc1ncc(-c2c(F)cccc2Cc2cc3ccc(F)c(F)c3nc2C)cn1 [I.078],3.25
10,COc1c(-c2ccccc2Nc2cc3ccc(F)c(F)c3nc2C)ccnc1F [I.079],3.72
11,COc1cccc(-c2c(F)cccc2Nc2cc3ccc(F)c(F)c3nc2C)n1 [I.080],4.55
12,COc1cnccc1-c1c(F)cccc1Nc1cc2ccc(F)c(F)c2nc1C [I.081],2.44
13,COc1ccncc1-c1c(F)cccc1Nc1cc2ccc(F)c(F)c2nc1C [I.082],1.84
14,COc1cc(-c2c(F)cccc2Nc2cc3ccc(F)c(F)c3nc2C)ccn1 [I.083],3.71
15,Cc1cnc(Cl)c(-c2ccccc2Nc2cc3ccc(F)c(F)c3nc2C)c1 [I.084],3.69
16,Cc1nc2c(F)c(F)ccc2cc1Nc1ccccc1-c1ccc(Cl)nc1C [I.085],3.94
17,Cc1cc(Cl)ncc1-c1ccccc1Nc1cc2ccc(F)c(F)c2nc1C [I.086],3.98
18,Cc1cc(-c2ccccc2Nc2cc3ccc(F)c(F)c3nc2C)cnc1Cl [I.087],3.91

row,SMILES,logP
1,COc1ncc(-c2c(F)cccc2Nc2cc3ccc(F)c(F)c3nc2C)cn1 [I.088],3.08
2,Cc1cc(-c2c(F)cccc2Nc2cc3ccc(F)c(F)c3nc2C)cnc1F [I.089],3.75
3,Cc1nc2c(F)c(F)ccc2cc1Nc1ccccc1-c1cncc(F)c1Cl [I.090],3.62
4,Cc1nc2c(F)c(F)ccc2cc1Nc1cccc(F)c1-c1ccnc(Cl)c1 [I.091],3.69
5,Cc1nc2c(F)c(F)ccc2cc1Nc1cccc(F)c1-c1ccc(Cl)nc1 [I.092],3.72
6,Cc1nc2c(F)c(F)ccc2cc1Nc1cccc(F)c1-c1ccncc1Cl [I.093],3.46
7,Cc1nc2c(F)c(F)ccc2cc1Nc1cccc(F)c1-c1cccnc1Cl [I.094],3.50
8,Cc1nc2c(F)c(F)ccc2cc1Nc1ccccc1-c1cc(Cl)cnc1F [I.095],4.01
9,Cc1nc2c(F)c(F)ccc2cc1Nc1ccccc1-c1ccnc(F)c1Cl [I.096],3.91
10,Cc1nc2c(F)c(F)ccc2cc1Nc1ccccc1-c1cc(F)cnc1Cl [I.097],3.81
11,Cc1nc2c(F)c(F)ccc2cc1Nc1ccccc1-c1cc(Cl)ncc1F [I.098],3.91
12,Cc1nc2c(F)c(F)ccc2cc1Nc1cccc(F)c1-c1cncc(Cl)c1 [I.099],3.60
13,Cc1nc2c(F)c(F)ccc2cc1Nc1cccc(F)c1-c1cc(F)nc(F)c1 [I.100],3.98
14,Cc1nc2c(F)c(F)ccc2cc1Nc1cccc(F)c1-c1ccnc(F)c1F [I.101],3.81
15,Cc1nc2c(F)c(F)ccc2cc1Nc1cccc(F)c1-c1ccc(F)nc1F [I.103],3.84
16,Cc1nc2c(F)c(F)ccc2cc1Nc1cccc(F)c1-c1cccnc1C1CC1 [I.105],3.25
17,Cc1nc2c(F)c(F)ccc2cc1Nc1cccc(F)c1-c1ccncc1C1CC1 [I.106],2.49
18,Cc1nc2c(F)c(F)ccc2cc1Nc1ccccc1-c1ccc(OC(C)C)nc1 [I.107],4.43

# Same assay, conditions: reversed-phase HPLC column (C 18); preparation examples; log P as defined in table 1 (HPLC, 0.1% aqueous formic acid/acetonitrile)
row,SMILES,chromatographic logP
1,"Cc1nc2c(F)c(F)ccc2cc1Nc1cccc(F)c1-c1cnccc1C1CC1 [I.104, N-[2-(4-cyclopropylpyridin-3-yl)-3-fluorophenyl]-7,8-difluoro-2-methylquinolin-3-amine]",2.12
